Results from ChEMBL document CHEMBL1201862, “PubChem BioAssay data set” (2004).
Activity calls are given as the source filed them.

Legend:
MEF = assay: SAR analysis of small molecule cytotoxicity of MazEF TA System activators in embryonic fibroblast (MEF) cells. [Related pubchem assays (depositor defined):AID504720, AID504743]; format: functional; settings: Mus musculus
[1] = target: T1, Endoribonuclease toxin MazF (Escherichia coli K-12, UniProt P0AE70); assay: activation of MazEF endoribonuclease cleavage – biochemical, fluorescence, single-stranded RNA substrate, uHTS hits, dose response (AID 588481); format: functional
T1 sequence (P0AE70 whole entry): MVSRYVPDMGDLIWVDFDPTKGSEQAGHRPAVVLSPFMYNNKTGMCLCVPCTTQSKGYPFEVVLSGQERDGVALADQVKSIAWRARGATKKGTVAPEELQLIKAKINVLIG

[2] = target: T1, Endoribonuclease toxin MazF; assay: MazEF toxin-antitoxin RNase activation – biochemical, fluorescence, single-stranded RNA substrate, SAR follow-up (AID 588603); format: functional
[3] = target: T1, Endoribonuclease toxin MazF; assay: SAR analysis of small molecule activators of the MazEF TA System via a fluorescence-based single-stranded RNase assay counterscreen. [Related pubchem assays (depositor defined):AID504720, AID504743]; format: functional
[4] = target: T1, Endoribonuclease toxin MazF; assay: substrate-only fluorescence increase artefacts – biochemical, single-stranded RNase substrate, counter-screen for MazEF activator project, dose response (AID 588502); format: functional
[5] = target: T2, RNA-binding protein pos-1 (Caenorhabditis elegans, UniProt G5EF15); assay: disruptors of C. elegans POS-1 RNA interaction – biochemical, fluorescence polarization, dose response (AID 1964);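 also: purified POS-1 fused to maltose binding protein made in E. coli; potency of compounds blocking POS-1 binding to fluorescent RNA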
T2 sequence (G5EF15 whole entry): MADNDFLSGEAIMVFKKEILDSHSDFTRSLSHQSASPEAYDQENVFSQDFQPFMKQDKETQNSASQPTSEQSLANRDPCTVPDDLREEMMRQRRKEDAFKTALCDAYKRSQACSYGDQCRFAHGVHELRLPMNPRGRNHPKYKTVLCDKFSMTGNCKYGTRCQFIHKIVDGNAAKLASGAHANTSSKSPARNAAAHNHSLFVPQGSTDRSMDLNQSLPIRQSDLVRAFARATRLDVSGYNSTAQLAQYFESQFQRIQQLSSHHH

ORF 73 = ORF 73 (Human herpesvirus 8, UniProt O40947); assay: KSHV LANA DNA-binding disruption – biochemical, fluorescence polarization, cherry-picked samples, dose response (AID 504725); design: species or system Human gammaherpesvirus 8;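 also: fluorescence polarization of a labeled DNA duplex reporting LANA DNA binding; potency is for inhibitors that block LANA binding to the DNA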
Chain of ORF 73 (O40947 whole entry): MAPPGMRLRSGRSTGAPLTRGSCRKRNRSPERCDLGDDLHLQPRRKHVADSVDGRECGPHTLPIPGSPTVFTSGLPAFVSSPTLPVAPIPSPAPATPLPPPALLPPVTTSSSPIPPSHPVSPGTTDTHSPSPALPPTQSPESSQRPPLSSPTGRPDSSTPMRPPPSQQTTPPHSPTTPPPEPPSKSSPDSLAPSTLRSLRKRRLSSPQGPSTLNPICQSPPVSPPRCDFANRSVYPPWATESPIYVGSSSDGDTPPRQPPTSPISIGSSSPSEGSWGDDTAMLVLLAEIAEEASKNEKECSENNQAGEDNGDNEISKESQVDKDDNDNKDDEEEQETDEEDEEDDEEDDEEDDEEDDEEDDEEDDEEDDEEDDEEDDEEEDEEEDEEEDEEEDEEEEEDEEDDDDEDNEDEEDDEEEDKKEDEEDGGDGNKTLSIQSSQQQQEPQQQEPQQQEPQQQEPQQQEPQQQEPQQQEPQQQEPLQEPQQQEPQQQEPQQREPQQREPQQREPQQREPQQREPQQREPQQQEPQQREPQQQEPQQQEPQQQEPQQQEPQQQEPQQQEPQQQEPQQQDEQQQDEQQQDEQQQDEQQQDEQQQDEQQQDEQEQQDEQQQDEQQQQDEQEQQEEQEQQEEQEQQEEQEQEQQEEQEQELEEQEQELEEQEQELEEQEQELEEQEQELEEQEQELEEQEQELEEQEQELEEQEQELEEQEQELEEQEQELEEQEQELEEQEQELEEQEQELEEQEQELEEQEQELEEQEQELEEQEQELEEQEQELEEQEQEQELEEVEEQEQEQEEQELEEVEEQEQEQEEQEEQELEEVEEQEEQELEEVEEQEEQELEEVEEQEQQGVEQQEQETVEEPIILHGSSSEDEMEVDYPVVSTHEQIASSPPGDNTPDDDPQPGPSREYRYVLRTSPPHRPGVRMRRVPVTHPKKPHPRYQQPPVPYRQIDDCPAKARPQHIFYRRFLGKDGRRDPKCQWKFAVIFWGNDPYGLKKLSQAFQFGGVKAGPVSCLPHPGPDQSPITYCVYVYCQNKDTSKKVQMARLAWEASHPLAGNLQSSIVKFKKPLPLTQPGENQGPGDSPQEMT

[6] = target: T3, Zinc finger protein mex-5 (Caenorhabditis elegans, UniProt Q9XUB2); assay: potency of MEX-5 RNA-binding blockers – biochemical, C. elegans, fluorescence polarization, dose response (AID 1960)
T3 sequence (Q9XUB2 whole entry): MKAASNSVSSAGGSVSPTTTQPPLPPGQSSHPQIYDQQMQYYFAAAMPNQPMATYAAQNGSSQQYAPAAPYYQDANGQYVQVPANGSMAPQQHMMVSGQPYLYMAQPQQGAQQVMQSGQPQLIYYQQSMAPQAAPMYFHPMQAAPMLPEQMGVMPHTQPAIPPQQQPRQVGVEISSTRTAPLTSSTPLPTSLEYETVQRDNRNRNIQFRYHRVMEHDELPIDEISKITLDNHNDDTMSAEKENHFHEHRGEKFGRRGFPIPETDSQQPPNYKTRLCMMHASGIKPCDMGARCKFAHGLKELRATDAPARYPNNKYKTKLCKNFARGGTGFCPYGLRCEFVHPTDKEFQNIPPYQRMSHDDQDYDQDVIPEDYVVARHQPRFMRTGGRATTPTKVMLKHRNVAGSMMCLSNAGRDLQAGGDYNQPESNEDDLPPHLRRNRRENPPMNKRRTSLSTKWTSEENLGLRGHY

[7] = target: Induced myeloid leukemia cell differentiation protein Mcl-1 (Homo sapiens, UniProt Q07820); assay: blockers of MCL1 binding to BIM peptide – biochemical, fluorescence polarization, BIM-BH3 peptide, 1536-well, dose response (AID 2217)
Chain of Induced myeloid leukemia cell differentiation protein Mcl-1 (Q07820 whole entry): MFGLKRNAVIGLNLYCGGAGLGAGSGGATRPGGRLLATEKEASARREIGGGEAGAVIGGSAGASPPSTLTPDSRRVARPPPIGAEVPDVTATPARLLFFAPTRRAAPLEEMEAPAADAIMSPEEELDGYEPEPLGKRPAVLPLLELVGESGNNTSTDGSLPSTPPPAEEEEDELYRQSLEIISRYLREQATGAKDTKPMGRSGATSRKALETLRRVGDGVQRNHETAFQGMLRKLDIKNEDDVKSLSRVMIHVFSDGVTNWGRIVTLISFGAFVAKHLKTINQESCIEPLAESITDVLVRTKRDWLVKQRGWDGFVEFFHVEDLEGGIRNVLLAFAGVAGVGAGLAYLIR

[8] = target: T4, Small ubiquitin-related modifier 1 (Homo sapiens, UniProt P63165); assay: SUMO1 protein interaction blockers, potency – biochemical, fluorescence polarization, uHTS hits, dose response (AID 624382); format: functional; settings: read-out: IC50_Mean
T4 sequence (P63165 whole entry): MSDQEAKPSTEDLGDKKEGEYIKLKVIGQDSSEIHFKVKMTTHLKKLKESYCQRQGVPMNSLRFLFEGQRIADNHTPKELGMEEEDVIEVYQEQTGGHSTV

[9] = target: T4, Small ubiquitin-related modifier 1; assay: SUMO1 protein-protein binding blockers, potency – biochemical, FRET, dose response (AID 624383); format: functional; settings: read-out: IC50_Mean
HeLa = assay: viability loss in HeLa cells – cell-based, 24 h, cherry-picked samples, cytotoxicity control, dose response (AID 504726); format: functional; settings: Homo sapiens;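 also: potency for cytotoxicity as loss of luminescence signal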
[10] = target: DNA (cytosine-5)-methyltransferase 1 (Homo sapiens, UniProt P26358); assay: inhibition of DNA methylation by DNMT1 – biochemical, fluorescent molecular beacon, confirmation (AID 602386); format: functional
Chain of DNA (cytosine-5)-methyltransferase 1 (P26358 whole entry): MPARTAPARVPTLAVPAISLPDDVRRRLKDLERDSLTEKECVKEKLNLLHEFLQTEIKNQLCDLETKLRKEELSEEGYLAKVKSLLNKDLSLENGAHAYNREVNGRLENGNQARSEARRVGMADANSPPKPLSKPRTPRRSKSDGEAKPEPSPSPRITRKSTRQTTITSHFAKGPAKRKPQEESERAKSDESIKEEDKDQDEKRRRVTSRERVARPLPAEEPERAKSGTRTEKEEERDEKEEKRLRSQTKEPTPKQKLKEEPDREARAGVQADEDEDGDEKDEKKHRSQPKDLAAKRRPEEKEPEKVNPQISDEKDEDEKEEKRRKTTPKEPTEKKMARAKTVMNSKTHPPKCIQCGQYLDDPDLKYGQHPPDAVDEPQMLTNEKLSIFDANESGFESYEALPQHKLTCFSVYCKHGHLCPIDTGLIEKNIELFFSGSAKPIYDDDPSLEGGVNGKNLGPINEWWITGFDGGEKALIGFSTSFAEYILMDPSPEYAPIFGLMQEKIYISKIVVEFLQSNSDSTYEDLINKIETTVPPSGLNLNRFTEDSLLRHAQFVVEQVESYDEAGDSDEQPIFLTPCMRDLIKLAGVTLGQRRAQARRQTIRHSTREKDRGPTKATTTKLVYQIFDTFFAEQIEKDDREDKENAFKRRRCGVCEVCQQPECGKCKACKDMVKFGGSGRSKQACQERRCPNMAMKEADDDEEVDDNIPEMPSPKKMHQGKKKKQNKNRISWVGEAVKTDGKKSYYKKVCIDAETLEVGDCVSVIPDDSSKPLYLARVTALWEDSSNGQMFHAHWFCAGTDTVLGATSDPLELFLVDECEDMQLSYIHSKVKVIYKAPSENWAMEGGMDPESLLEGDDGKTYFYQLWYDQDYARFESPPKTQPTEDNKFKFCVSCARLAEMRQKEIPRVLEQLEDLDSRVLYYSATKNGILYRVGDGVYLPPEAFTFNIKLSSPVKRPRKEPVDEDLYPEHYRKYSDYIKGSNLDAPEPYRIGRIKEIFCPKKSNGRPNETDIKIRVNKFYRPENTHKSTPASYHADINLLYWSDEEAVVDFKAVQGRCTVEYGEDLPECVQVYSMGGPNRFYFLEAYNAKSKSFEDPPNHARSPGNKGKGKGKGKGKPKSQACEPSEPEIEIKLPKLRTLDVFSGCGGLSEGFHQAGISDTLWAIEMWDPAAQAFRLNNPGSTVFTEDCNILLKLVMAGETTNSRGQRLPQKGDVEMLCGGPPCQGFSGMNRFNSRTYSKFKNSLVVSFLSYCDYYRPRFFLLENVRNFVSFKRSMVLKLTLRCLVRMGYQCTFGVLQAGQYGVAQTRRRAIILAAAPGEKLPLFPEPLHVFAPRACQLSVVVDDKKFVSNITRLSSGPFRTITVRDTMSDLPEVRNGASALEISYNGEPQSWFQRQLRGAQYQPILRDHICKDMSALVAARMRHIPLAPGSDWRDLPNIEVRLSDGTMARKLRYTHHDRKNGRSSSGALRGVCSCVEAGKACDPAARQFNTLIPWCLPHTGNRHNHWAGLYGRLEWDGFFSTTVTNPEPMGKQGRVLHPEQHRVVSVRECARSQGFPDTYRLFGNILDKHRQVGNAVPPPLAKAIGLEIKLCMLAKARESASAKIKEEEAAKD

Bcl-2-like protein 1 = Bcl-2-like protein 1 (Homo sapiens, UniProt Q07817); assay: blockers of BCLXL peptide binding – biochemical, fluorescence polarization, 1536-well, selectivity assay for MCL1 inhibitor project, dose response (AID 2218)
Chain of Bcl-2-like protein 1 (Q07817 whole entry): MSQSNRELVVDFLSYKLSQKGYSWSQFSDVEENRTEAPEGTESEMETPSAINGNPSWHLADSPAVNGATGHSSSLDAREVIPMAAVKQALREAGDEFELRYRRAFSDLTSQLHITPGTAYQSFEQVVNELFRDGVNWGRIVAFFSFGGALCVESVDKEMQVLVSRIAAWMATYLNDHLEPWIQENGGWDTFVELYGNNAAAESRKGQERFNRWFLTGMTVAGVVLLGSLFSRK

[11] = target: Beta-adrenergic receptor kinase 1 (Homo sapiens, UniProt P25098); assay: aptamer displacement from bead-bound GRK2 – biochemical, cherry pick 1, bead flow cytometry, dose response (AID 504500)
Chain of Beta-adrenergic receptor kinase 1 (P25098 whole entry): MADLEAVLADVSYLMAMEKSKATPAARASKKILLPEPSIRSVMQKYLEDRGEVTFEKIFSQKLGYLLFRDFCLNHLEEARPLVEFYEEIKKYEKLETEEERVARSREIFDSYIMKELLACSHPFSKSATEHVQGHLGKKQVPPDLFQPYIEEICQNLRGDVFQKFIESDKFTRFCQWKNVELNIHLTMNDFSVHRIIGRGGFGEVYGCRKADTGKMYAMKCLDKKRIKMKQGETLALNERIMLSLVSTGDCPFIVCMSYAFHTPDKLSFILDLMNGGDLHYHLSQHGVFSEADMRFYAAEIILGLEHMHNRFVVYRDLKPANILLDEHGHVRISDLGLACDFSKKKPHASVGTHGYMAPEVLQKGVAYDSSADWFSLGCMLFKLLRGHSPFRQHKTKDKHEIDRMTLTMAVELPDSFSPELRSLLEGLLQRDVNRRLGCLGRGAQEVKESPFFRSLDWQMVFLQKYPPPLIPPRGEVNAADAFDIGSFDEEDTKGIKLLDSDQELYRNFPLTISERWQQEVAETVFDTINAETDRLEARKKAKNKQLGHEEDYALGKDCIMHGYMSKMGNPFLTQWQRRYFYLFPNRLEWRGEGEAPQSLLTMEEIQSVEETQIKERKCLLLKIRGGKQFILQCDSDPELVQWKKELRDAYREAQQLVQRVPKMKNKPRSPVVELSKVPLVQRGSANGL

INS1 = assay: INS-1E survival protection against cytokine death – cell-based, luminescence, retest, dose response (AID 449756); format: functional; settings: Rattus norvegicus;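 also: cell death triggered by IL-1 beta plus TNF-alpha plus IFN-gamma mixture; protective hits raise ATP signal compared with cytokine alone wells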
[12] = target: T5, Replicative DNA helicase DnaB (Mycobacterium tuberculosis, UniProt P9WMR3); assay: DnaB intein splicing inhibitors, dose response, biochemical, cell-free fluorescence (AID 449749); format: functional
T5 sequence (P9WMR3 whole entry): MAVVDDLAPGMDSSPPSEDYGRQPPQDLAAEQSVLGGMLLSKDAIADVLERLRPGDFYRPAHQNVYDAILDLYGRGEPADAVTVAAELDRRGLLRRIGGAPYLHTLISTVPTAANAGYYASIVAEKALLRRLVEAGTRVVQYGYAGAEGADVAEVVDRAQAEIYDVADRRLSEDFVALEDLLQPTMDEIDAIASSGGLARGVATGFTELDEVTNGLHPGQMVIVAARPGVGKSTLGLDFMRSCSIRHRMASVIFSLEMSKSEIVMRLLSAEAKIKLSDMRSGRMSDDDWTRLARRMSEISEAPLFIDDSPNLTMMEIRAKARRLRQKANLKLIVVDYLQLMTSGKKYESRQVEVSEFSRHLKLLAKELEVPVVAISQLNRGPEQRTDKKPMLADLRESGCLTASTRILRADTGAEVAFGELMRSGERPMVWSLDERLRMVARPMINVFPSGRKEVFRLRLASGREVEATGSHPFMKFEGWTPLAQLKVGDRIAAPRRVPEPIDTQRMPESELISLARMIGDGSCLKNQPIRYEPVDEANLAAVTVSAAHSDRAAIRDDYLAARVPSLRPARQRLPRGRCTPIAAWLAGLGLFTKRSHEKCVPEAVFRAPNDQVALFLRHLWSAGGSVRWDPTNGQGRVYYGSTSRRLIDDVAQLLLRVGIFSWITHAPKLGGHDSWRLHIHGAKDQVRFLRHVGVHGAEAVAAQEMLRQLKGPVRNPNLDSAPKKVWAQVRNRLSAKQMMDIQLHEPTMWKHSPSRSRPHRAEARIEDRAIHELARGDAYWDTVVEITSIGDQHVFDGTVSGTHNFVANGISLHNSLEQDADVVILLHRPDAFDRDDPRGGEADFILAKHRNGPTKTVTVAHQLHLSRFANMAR

[13] = target: T6, Heat shock factor protein 1 (Mus musculus, UniProt P38532); assay: decrease of HSF1-responsive luciferase luminescence – cell-based, NIH3T3, dose retest, confirmation (AID 2382); format: functional;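 also: NIH3T3 fibroblasts with HSF1-driven luciferase reporter stressed by proteasome inhibitor MG132; luminescence from HSF1-driven luciferase expression after 8 hours of MG132 stress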
T6 sequence (P38532 whole entry): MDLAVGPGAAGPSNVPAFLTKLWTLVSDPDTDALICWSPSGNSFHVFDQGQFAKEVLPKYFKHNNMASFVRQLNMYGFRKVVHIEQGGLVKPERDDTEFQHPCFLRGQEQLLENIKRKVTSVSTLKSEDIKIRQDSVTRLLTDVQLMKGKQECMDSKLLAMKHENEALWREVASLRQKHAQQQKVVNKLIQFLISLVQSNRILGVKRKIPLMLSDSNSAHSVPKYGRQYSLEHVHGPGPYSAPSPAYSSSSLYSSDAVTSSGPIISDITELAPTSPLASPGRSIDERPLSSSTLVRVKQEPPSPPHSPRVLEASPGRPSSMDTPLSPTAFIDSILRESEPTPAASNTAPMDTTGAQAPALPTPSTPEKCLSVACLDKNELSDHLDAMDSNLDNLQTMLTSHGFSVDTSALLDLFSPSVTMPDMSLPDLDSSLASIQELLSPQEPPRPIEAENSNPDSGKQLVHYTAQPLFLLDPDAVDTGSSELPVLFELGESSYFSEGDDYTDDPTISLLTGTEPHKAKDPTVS

Caspase-6 = target: T7, Caspase-6 (Homo sapiens, UniProt P55212); assay: inhibition of CASP6 peptide cleavage – biochemical, VEID-R110 fluorescence, cherry-pick, dose response (AID 720632)
T7 sequence (P55212 whole entry): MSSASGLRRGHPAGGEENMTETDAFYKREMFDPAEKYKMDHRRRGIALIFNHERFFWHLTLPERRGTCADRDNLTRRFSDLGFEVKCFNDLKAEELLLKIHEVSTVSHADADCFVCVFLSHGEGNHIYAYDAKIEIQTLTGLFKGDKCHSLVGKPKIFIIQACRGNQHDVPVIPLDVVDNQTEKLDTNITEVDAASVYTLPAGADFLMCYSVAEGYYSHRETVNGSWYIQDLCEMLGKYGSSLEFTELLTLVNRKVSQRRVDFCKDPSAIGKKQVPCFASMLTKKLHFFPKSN

Protein RecA = target: T8, Protein RecA (Mycobacterium tuberculosis, UniProt P9WHJ3); assay: Fluorescence Cell-Free Homogeneous Dose Retest to Identify Inhibitors of RecA-Intein Splicing Activity. [Related pubchem assays (depositor defined):AID2097, AID2223, AID489010, AID492950]; format: functional
T8 sequence (P9WHJ3 whole entry): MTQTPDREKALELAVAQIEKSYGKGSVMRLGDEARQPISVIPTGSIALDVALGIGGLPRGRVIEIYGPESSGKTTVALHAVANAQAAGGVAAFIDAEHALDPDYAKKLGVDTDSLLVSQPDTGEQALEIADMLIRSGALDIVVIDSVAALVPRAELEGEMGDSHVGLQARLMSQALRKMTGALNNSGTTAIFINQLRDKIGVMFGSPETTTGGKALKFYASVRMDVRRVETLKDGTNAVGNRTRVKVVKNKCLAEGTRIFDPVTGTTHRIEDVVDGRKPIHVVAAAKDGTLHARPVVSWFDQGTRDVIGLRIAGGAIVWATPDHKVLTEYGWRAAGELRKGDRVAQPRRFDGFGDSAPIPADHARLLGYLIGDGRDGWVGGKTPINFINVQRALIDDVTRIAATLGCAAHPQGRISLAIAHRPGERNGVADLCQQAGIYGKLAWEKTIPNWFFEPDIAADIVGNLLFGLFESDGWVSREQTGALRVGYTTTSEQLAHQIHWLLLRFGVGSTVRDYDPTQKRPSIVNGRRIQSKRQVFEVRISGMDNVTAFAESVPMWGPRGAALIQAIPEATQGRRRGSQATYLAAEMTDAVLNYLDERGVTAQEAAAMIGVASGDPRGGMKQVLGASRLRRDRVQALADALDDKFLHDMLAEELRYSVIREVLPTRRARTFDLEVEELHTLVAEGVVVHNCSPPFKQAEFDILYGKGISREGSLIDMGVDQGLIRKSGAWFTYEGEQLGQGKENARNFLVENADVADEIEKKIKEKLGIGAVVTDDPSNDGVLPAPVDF

Vero = assay: viability of Vero cells under compound – cytotoxicity control for flavivirus capping enzyme inhibitors (AID 588742); format: functional; settings: Chlorocebus sabaeus
Protein S100-A4 = Protein S100-A4 (Homo sapiens, UniProt P26447); assay: human S100A4 peptide interaction inhibition curves – biochemical, fluorescence polarization, cherry-picked hits, dose response (AID 687001); format: functional
Genome polyprotein = Genome polyprotein (dengue virus type 2, UniProt P29990); assay: flavivirus cap methylation enzyme inhibition – biochemical, confirmation dose response, primary screen (AID 588689); format: functional
Chain of Genome polyprotein (P29990 2492-3391 limits assumed): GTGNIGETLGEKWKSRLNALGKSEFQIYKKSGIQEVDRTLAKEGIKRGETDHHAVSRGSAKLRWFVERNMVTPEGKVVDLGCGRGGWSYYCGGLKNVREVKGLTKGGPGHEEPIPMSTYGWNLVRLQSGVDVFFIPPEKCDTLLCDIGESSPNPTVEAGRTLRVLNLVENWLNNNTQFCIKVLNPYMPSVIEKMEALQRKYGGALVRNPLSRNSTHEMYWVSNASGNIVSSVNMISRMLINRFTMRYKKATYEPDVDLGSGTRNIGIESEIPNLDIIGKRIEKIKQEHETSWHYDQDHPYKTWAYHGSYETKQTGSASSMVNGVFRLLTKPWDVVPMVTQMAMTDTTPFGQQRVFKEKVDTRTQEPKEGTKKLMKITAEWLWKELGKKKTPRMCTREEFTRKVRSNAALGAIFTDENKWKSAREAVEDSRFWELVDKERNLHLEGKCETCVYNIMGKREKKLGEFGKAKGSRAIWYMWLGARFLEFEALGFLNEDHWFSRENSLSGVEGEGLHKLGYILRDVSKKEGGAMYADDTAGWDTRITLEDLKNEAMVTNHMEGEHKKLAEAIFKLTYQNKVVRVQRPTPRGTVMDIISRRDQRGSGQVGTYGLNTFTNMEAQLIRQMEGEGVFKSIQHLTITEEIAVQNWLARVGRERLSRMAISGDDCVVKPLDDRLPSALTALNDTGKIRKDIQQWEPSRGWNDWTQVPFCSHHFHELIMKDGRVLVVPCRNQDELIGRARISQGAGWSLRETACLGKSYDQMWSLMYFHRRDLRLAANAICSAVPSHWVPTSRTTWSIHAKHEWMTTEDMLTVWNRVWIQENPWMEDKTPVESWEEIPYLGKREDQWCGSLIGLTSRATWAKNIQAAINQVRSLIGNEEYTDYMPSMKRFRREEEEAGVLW

[14] = target: T9, Tyrosyl-DNA phosphodiesterase 2 (Homo sapiens, UniProt O95551); assay: potency against TDP2 phosphodiesterase activity – biochemical, epi absorbance, IC50, dose response (AID 743297)
T9 sequence (O95551 whole entry): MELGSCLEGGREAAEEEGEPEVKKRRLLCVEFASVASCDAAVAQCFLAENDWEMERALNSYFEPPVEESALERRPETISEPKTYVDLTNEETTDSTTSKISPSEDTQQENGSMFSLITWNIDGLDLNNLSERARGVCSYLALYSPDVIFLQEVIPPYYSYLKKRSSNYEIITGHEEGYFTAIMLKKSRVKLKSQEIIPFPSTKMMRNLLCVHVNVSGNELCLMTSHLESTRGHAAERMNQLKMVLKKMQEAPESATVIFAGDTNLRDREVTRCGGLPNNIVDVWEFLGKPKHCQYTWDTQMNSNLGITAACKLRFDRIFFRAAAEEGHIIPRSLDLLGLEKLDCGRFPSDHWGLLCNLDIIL

Cc1ccc(C(=O)Oc2cc(N)n(S(=O)(=O)c3ccc(F)cc3)n2)cc1
CC50 (MEF): > 99 µM (inactive) | EC50 [1]: 5.26 µM (active) | EC50 [2]: > 99 µM (inactive) | EC50 [3]: > 99 µM (inactive) | EC50 [4]: 4.1 µM (active)

O=C(O)c1ccc(-n2cccc2/C=C2/SC(=O)N(CC(=O)N3CCCC3)C2=O)cc1
EC50 [5]: 89 µM (active) | AC50 (ORF 73): 30.3 µM (active) | EC50 [6]: 78.2 µM (active) | IC50 [7]: 15.9 µM (not active) | IC50 [8]: > 66.6 µM (inactive) | IC50 [9]: 6.13 µM (active) | AC50 (HeLa): 44.7 µM (active) | IC50 [10]: 3.5 µM (active) | IC50 (Bcl-2-like protein 1): 104 µM (not active) | EC50 [11]: 33 µM (inactive)

CCC(CNc1cc(OC)cc2cccnc12)NC1CCCCC1 (centres undefined)
AC50 (INS1): 7.62 µM (active) | AC50 [12]: > 380 µM (inactive) | EC50 [13]: > 195 µM (not active) | AC50 (Caspase-6): 39 µM (active) | EC50 (Protein RecA): 1.95 µM (active) | CC50 (Vero): > 40 µM (active) | AC50 (Protein S100-A4): 5.07 µM (active) | IC50 (Genome polyprotein): 39.2 µM (active) | IC50 [14]: 113 µM (inactive)
